According to ChEMBL document CHEMBL4507284, “Data for DCP probe BI-1230” (2021):

Tests used:
[1] = system: Tyrosine-protein kinase ABL1 (Homo sapiens), P00519 [F317L]; settings: Compound concentration 1000.0 nM
[2] = target: Bone morphogenetic protein receptor type-1B (Homo sapiens) (UniProt O00238); settings: Compound concentration 1000.0 nM
[3] = target: Bone morphogenetic protein receptor type-2 (Homo sapiens) (UniProt Q13873); settings: Compound concentration 1000.0 nM
[4] = target: Calcium/calmodulin-dependent protein kinase type 1B (Homo sapiens) (UniProt Q6P2M8); settings: Compound concentration 1000.0 nM
[5] = target: Calcium/calmodulin-dependent protein kinase type II subunit alpha (Homo sapiens) (UniProt Q9UQM7); settings: Compound concentration 1000.0 nM
[6] = target: Calcium/calmodulin-dependent protein kinase type II subunit delta (Homo sapiens) (UniProt Q13557); settings: Compound concentration 1000.0 nM
[7] = target: Calcium/calmodulin-dependent protein kinase type IV (Homo sapiens) (UniProt Q16566); settings: Compound concentration 1000.0 nM
[8] = target: Cyclin-dependent kinase 13 (Homo sapiens) (UniProt Q14004); settings: Compound concentration 1000.0 nM
[9] = target: Casein kinase I isoform alpha-like (Homo sapiens) (UniProt Q8N752); settings: Compound concentration 1000.0 nM
[10] = target: Ephrin type-A receptor 1 (Homo sapiens) (UniProt P21709); settings: Compound concentration 1000.0 nM
[11] = target: Ephrin type-B receptor 6 (Homo sapiens) (UniProt O15197); settings: Compound concentration 1000.0 nM
[12] = target: Fibroblast growth factor receptor 2 (Homo sapiens) (UniProt P21802); settings: Compound concentration 1000.0 nM
[13] = target: Receptor-type tyrosine-protein kinase FLT3 (Homo sapiens) (UniProt P36888); settings: Compound concentration 1000.0 nM
[14] = system: Receptor-type tyrosine-protein kinase FLT3 (Homo sapiens), P36888 [D835Y]; settings: Compound concentration 1000.0 nM
[15] = target: Cyclin-G-associated kinase (Homo sapiens) (UniProt O14976); settings: Compound concentration 1000.0 nM
[16] = target: Beta-adrenergic receptor kinase 1 (Homo sapiens) (UniProt P25098); settings: Compound concentration 1000.0 nM
[17] = target: Tyrosine-protein kinase HCK (Homo sapiens) (UniProt P08631); settings: Compound concentration 1000.0 nM
[18] = target: Serine/threonine-protein kinase ICK (Homo sapiens) (UniProt Q9UPZ9); settings: Compound concentration 1000.0 nM
[19] = target: Inhibitor of nuclear factor kappa-B kinase subunit beta (Homo sapiens) (UniProt O14920); settings: Compound concentration 1000.0 nM
[20] = system: Mast/stem cell growth factor receptor Kit (Homo sapiens), P10721 [D816H]; settings: Compound concentration 1000.0 nM
[21] = target: Mitogen-activated protein kinase kinase kinase 2 (Homo sapiens) (UniProt Q9Y2U5); settings: Compound concentration 1000.0 nM
[22] = target: Serine/threonine-protein kinase MARK2 (Homo sapiens) (UniProt Q7KZI7); settings: Compound concentration 1000.0 nM
[23] = target: Dual specificity mitogen-activated protein kinase kinase 3 (Homo sapiens) (UniProt P46734); settings: Compound concentration 1000.0 nM
[24] = target: Misshapen-like kinase 1 (Homo sapiens) (UniProt Q8N4C8); settings: Compound concentration 1000.0 nM
[25] = target: MAP kinase-interacting serine/threonine-protein kinase 2 (Homo sapiens) (UniProt Q9HBH9); settings: Compound concentration 1000.0 nM
[26] = target: Serine/threonine-protein kinase MRCK beta (Homo sapiens) (UniProt Q9Y5S2); settings: Compound concentration 1000.0 nM
[27] = target: Myosin-IIIb (Homo sapiens) (UniProt Q8WXR4); settings: Compound concentration 1000.0 nM
[28] = target: Serine/threonine-protein kinase Nek1 (Homo sapiens) (UniProt Q96PY6); settings: Compound concentration 1000.0 nM
[29] = target: Serine/threonine-protein kinase PAK 6 (Homo sapiens) (UniProt Q9NQU5); settings: Compound concentration 1000.0 nM
[30] = target: Phosphatidylinositol 4-phosphate 5-kinase type-1 gamma (Homo sapiens) (UniProt O60331); settings: Compound concentration 1000.0 nM
[31] = target: Phosphatidylinositol 5-phosphate 4-kinase type-2 gamma (Homo sapiens) (UniProt Q8TBX8); settings: Compound concentration 1000.0 nM
[32] = target: Serine/threonine-protein kinase PLK3 (Homo sapiens) (UniProt Q9H4B4); settings: Compound concentration 1000.0 nM
[33] = target: Protein kinase C eta type (Homo sapiens) (UniProt P24723); settings: Compound concentration 1000.0 nM
[34] = target: Tyrosine-protein kinase Srms (Homo sapiens) (UniProt Q9H3Y6); settings: Compound concentration 1000.0 nM
[35] = target: Serine/threonine-protein kinase 33 (Homo sapiens) (UniProt Q9BYT3); settings: Compound concentration 1000.0 nM
[36] = target: Activated CDC42 kinase 1 (Homo sapiens) (UniProt Q07912); settings: Compound concentration 1000.0 nM
[37] = target: Testis-specific serine/threonine-protein kinase 3 (Homo sapiens) (UniProt Q96PN8); settings: Compound concentration 1000.0 nM
[38] = target: Serine/threonine-protein kinase ULK1 (Homo sapiens) (UniProt O75385); settings: Compound concentration 1000.0 nM
[39] = target: Serine/threonine-protein kinase ULK3 (Homo sapiens) (UniProt Q6PHR2); settings: Compound concentration 1000.0 nM
[40] = target: Wee1-like protein kinase (Homo sapiens) (UniProt P30291); settings: Compound concentration 1000.0 nM
[41] = target: Tyrosine-protein kinase Yes (Homo sapiens) (UniProt P07947); settings: Compound concentration 1000.0 nM
[42] = target: Serine/threonine-protein kinase 25 (Homo sapiens) (UniProt O00506); settings: Compound concentration 1000.0 nM
[43] = target: D(4) dopamine receptor (Homo sapiens) (UniProt P21917); settings: Compound concentration 10.0 uM
[44] = target: Alpha-2A adrenergic receptor (Homo sapiens) (UniProt P08913); settings: Compound concentration 10.0 uM
[45] = target: Muscarinic acetylcholine receptor M1 (Homo sapiens) (UniProt P11229); settings: Compound concentration 10.0 uM

Chain of Tyrosine-protein kinase HCK (Homo sapiens) (P08631 2-526 limits assumed): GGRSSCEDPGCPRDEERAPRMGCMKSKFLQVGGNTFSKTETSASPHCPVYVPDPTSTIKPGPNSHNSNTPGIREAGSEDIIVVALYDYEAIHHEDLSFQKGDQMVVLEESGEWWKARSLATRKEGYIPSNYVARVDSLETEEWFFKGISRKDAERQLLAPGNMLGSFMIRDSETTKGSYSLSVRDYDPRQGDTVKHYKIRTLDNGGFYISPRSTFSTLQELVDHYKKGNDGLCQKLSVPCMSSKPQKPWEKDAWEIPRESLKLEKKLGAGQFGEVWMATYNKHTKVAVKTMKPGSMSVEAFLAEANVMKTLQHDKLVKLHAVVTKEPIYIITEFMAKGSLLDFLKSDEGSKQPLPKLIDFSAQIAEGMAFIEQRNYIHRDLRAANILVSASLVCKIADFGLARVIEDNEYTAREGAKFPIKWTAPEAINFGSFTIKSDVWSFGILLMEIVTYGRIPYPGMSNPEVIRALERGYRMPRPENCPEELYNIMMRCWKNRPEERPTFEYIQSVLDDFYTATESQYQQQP
Chain of Calcium/calmodulin-dependent protein kinase type II subunit delta (Homo sapiens) (Q13557 whole entry): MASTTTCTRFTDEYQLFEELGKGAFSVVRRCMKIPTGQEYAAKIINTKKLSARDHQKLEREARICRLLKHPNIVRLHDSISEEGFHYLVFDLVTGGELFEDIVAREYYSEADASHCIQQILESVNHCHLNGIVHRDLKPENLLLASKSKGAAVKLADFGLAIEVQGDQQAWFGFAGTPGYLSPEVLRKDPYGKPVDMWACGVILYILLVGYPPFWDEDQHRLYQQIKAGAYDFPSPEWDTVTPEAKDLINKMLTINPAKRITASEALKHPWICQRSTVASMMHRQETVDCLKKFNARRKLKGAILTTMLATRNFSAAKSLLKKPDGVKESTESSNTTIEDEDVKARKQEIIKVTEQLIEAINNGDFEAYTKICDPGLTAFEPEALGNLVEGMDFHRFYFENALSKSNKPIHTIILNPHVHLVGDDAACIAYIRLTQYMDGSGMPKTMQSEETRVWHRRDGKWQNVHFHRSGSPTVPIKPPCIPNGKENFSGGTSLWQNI
Chain of Serine/threonine-protein kinase ULK3 (Homo sapiens) (Q6PHR2 whole entry): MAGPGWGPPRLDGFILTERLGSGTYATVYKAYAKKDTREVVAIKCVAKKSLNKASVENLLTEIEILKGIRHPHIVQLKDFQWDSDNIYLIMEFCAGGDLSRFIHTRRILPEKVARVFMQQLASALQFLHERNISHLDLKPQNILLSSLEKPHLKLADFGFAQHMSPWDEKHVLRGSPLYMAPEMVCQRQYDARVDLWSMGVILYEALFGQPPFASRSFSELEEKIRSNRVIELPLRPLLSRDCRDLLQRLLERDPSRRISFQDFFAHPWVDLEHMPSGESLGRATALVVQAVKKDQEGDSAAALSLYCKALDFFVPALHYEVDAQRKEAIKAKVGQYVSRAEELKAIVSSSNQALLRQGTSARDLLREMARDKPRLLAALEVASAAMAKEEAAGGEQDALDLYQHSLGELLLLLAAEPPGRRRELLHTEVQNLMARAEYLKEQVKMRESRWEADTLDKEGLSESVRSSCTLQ
Chain of Tyrosine-protein kinase Srms (Homo sapiens) (Q9H3Y6 whole entry): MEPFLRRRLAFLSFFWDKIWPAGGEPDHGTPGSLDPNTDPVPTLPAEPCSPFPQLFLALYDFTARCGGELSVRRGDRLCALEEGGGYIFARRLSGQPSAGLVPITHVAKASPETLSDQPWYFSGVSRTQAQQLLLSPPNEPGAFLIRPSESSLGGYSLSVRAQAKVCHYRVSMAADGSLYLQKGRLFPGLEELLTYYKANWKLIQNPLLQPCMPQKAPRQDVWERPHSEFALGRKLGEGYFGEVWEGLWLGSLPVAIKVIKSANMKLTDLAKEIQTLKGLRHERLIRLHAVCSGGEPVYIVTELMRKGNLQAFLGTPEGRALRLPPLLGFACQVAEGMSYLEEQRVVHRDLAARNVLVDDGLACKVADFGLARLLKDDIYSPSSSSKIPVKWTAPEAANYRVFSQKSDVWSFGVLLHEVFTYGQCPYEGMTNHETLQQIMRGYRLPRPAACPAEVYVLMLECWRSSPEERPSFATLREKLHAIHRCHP
Chain of Serine/threonine-protein kinase 33 (Homo sapiens) (Q9BYT3 whole entry, looked up): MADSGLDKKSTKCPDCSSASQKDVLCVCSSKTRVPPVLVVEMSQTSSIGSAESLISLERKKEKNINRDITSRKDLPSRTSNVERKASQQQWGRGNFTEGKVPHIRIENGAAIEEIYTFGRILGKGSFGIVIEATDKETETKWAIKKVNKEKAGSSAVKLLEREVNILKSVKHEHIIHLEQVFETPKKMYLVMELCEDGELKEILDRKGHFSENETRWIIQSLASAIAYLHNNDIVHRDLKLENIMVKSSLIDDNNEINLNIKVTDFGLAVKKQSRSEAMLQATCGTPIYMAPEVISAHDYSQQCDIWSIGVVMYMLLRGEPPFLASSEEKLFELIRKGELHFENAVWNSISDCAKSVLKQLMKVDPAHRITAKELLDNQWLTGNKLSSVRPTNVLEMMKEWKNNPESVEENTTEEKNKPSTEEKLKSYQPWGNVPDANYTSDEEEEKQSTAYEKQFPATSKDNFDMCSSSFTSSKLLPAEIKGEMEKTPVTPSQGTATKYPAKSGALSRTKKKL
Chain of Ephrin type-B receptor 6 (Homo sapiens) (O15197 whole entry): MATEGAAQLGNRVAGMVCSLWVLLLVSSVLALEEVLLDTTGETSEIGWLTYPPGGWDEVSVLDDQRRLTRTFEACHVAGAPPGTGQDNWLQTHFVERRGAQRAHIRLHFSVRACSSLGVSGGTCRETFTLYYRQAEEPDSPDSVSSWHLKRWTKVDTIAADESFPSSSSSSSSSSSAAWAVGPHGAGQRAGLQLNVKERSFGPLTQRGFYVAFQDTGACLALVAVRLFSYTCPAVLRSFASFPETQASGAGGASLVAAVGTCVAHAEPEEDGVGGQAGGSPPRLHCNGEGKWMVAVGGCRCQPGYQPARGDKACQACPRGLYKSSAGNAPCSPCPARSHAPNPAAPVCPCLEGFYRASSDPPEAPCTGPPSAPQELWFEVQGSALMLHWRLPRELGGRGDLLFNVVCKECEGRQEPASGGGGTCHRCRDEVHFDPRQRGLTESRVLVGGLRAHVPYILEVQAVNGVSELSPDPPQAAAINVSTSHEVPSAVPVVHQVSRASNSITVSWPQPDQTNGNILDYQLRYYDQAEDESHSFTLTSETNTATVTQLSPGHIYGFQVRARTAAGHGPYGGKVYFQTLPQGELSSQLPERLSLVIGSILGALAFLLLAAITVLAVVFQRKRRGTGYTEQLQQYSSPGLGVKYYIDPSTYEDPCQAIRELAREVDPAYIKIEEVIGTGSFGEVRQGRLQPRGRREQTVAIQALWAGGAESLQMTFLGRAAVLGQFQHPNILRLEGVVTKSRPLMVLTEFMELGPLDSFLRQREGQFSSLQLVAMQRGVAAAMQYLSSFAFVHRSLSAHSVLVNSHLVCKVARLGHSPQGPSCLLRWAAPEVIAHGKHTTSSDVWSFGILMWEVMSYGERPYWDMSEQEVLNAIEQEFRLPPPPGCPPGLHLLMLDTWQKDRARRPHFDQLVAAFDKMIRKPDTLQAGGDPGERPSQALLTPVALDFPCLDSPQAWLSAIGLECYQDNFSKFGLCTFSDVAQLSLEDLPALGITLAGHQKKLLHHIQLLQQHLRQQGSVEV
Chain of Ephrin type-A receptor 1 (Homo sapiens) (P21709 whole entry): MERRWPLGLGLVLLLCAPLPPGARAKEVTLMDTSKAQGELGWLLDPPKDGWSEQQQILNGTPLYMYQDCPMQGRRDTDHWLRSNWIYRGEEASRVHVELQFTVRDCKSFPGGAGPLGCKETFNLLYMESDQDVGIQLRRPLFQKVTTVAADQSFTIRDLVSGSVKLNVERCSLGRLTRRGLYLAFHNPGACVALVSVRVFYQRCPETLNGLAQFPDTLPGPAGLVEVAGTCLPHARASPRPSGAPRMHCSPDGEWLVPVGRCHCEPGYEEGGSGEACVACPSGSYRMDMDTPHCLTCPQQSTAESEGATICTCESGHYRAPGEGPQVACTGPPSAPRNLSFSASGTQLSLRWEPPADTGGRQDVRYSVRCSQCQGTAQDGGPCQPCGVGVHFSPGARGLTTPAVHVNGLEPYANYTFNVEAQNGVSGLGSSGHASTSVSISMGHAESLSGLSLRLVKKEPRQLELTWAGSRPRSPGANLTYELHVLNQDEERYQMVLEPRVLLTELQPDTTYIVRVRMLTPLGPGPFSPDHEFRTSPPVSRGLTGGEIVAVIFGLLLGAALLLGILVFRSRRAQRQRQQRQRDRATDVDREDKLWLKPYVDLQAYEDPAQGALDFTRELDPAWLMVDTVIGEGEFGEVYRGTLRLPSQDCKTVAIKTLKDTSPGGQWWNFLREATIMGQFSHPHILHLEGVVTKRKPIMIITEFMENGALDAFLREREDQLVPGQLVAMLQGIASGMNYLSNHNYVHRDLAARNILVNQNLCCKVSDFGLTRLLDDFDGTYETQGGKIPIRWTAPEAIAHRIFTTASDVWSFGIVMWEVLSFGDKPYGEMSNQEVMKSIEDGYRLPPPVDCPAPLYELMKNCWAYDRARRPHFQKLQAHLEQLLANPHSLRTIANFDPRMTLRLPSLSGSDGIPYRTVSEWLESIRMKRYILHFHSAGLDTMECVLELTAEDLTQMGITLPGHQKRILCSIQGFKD
Chain of D(4) dopamine receptor (Homo sapiens) (P21917 whole entry): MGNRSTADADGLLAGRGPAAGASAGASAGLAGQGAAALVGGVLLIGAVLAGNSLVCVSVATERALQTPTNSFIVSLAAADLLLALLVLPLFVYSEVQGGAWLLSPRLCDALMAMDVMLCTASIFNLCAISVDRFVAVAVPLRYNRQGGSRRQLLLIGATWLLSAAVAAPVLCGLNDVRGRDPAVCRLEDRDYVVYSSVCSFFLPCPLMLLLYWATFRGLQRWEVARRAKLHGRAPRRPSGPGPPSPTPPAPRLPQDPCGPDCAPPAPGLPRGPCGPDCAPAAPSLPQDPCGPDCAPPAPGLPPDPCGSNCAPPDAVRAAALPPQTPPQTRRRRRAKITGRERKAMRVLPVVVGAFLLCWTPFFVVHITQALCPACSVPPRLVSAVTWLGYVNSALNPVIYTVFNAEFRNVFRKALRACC

## COc1ccc2c(O[C@@H]3C[C@H]4C(=O)N[C@]5(C(=O)O)CC5/C=C\CCCCC[C@H](NC(=O)OC5CCCC5)C(=O)N4C3)cc(-c3csc(NC(=O)C(C)C)n3)nc2c1C (stereo not given in full) [BI 1230]
[1]
  residual activity: 75%
[2]
  residual activity: 77%
[3]
  residual activity: 84%
[4]
  residual activity: 88%
[5]
  residual activity: 100%
[6]
  residual activity: 100%
[7]
  residual activity: 95%
[8]
  residual activity: 77%
[9]
  residual activity: 100%
[10]
  residual activity: 88%
[11]
  residual activity: 89%
[12]
  residual activity: 96%
[13]
  residual activity: 88%
[14]
  residual activity: 87%
[15]
  residual activity: 95%
[16]
  residual activity: 83%
[17]
  residual activity: 100%
[18]
  residual activity: 68%
[19]
  residual activity: 83%
[20]
  residual activity: 86%
[21]
  residual activity: 100%
[22]
  residual activity: 100%
[23]
  residual activity: 82%
[24]
  residual activity: 62%
[25]
  residual activity: 70%
[26]
  residual activity: 96%
[27]
  residual activity: 68%
[28]
  residual activity: 100%
[29]
  residual activity: 100%
[30]
  residual activity: 100%
[31]
  residual activity: 89%
[32]
  residual activity: 79%
[33]
  residual activity: 100%
[34]
  residual activity: 98%
[35]
  residual activity: 54%
[36]
  residual activity: 100%
[37]
  residual activity: 80%
[38]
  residual activity: 93%
[39]
  residual activity: 93%
[40]
  residual activity: 100%
[41]
  residual activity: 100%
[42]
  residual activity: 100%
[43]
  inhibition: 24.6%
[44]
  inhibition: 15.3%
[45]
  inhibition: 8.82%

## O=C(N[C@H]1CCCCC/C=C\C2C[C@@]2(C(=O)O)NC(=O)[C@@H]2C[C@@H](Oc3ccncc3)CN2C1=O)OC1CCCC1 (stereo not given in full) [BI 1675]
[1]
  residual activity: 100%
[2]
  residual activity: 95%
[3]
  residual activity: 100%
[4]
  residual activity: 99%
[5]
  residual activity: 95%
[6]
  residual activity: 87%
[7]
  residual activity: 90%
[8]
  residual activity: 90%
[9]
  residual activity: 100%
[10]
  residual activity: 90%
[11]
  residual activity: 89%
[12]
  residual activity: 79%
[13]
  residual activity: 93%
[14]
  residual activity: 98%
[15]
  residual activity: 90%
[16]
  residual activity: 51%
[17]
  residual activity: 100%
[18]
  residual activity: 85%
[19]
  residual activity: 91%
[20]
  residual activity: 100%
[21]
  residual activity: 69%
[22]
  residual activity: 81%
[23]
  residual activity: 80%
[24]
  residual activity: 100%
[25]
  residual activity: 75%
[26]
  residual activity: 100%
[27]
  residual activity: 38%
[28]
  residual activity: 100%
[29]
  residual activity: 100%
[30]
  residual activity: 100%
[31]
  residual activity: 100%
[32]
  residual activity: 100%
[33]
  residual activity: 91%
[34]
  residual activity: 100%
[35]
  residual activity: 89%
[36]
  residual activity: 100%
[37]
  residual activity: 100%
[38]
  residual activity: 100%
[39]
  residual activity: 82%
[40]
  residual activity: 100%
[41]
  residual activity: 100%
[42]
  residual activity: 97%
[43]
  inhibition: 9.26%
[44]
  inhibition: 0.78%
[45]
  inhibition: 14.1%
